Reference: PubChem BioAssay AID248 (DTP/NCI, 2004)
Where “and” joins values, the source holds several entries; their conditions need not be identical. Equal values may be shown once. Toxic doses and inconclusive results are not listed. Rule as the data show it: active = T/C of 150% or more; inactive = T/C below 125%.

System: L1210 leukemia ip in BDF1 mice, survival T/C
Test: NCI In Vivo Anticancer Drug Screen. Data for tumor model L1210 Leukemia (intraperitoneal) in B6D2F1 (BDF1) mice
Conditions: endpoint: mean survival time, higher = longer survival
In short: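 In this screen, tumor-bearing mice given compound are compared to those given vehicle, and their survival values are reported as a treated-to-control quotient.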

[1] = dose: 100.0 mg/kg/injection, schedule: Q04DX003 (ip), vehicle: saline with Tween-80
[2] = dose: 200.0 mg/kg/injection, schedule: Q04DX003 (ip), vehicle: saline with Tween-80
[3] = dose: 400.0 mg/kg/injection, schedule: Q04DX003 (ip), vehicle: saline with Tween-80
[4] = dose: 100.0 mg/kg/injection, schedule: Q04DX003 (ip), vehicle: saline sonified
[5] = dose: 200.0 mg/kg/injection, schedule: Q04DX003 (ip), vehicle: saline sonified
[6] = dose: 100.0 mg/kg/injection, schedule: Q01DX009 (ip), vehicle: Klucel (hydroxypropylcellulose) (HPC)
[7] = dose: 200.0 mg/kg/injection, schedule: Q01DX009 (ip), vehicle: Klucel (hydroxypropylcellulose) (HPC)
[8] = dose: 100.0 mg/kg/injection, schedule: Q01DX009 (ip), vehicle: saline
[9] = dose: 100.0 mg/kg/injection, schedule: Q04DX003 (ip), vehicle: saline
[10] = dose: 200.0 mg/kg/injection, schedule: Q01DX009 (ip), vehicle: saline
[11] = dose: 200.0 mg/kg/injection, schedule: Q04DX003 (ip), vehicle: saline
[12] = dose: 400.0 mg/kg/injection, schedule: Q01DX009 (ip), vehicle: saline
[13] = dose: 50.0 mg/kg/injection, schedule: Q01DX009 (ip), vehicle: Klucel (hydroxypropylcellulose) (HPC)
[14] = dose: 100.0 mg/kg/injection, schedule: Q04DX002 (ip), vehicle: Klucel (hydroxypropylcellulose) (HPC)
[15] = dose: 200.0 mg/kg/injection, schedule: Q04DX002 (ip), vehicle: Klucel (hydroxypropylcellulose) (HPC)
[16] = dose: 100.0 mg/kg/injection, schedule: Q04DX003 (ip), vehicle: Klucel (hydroxypropylcellulose) (HPC)
[17] = dose: 200.0 mg/kg/injection, schedule: Q04DX003 (ip), vehicle: Klucel (hydroxypropylcellulose) (HPC)
[18] = dose: 400.0 mg/kg/injection, schedule: Q04DX003 (ip), vehicle: Klucel (hydroxypropylcellulose) (HPC)
[19] = dose: 100.0 mg/kg/injection, schedule: Q01DX001 (ip), vehicle: saline
[20] = dose: 200.0 mg/kg/injection, schedule: Q01DX001 (ip), vehicle: saline
[21] = dose: 400.0 mg/kg/injection, schedule: Q01DX001 (ip), vehicle: saline

Measured: T/C

CCN(CC)S(=O)(=O)c1cccc(C(O)CC(O)(C(F)(F)F)C(F)(F)F)c1 (configuration not stated)
inactive: dose: 100.0 mg/kg/injection, schedule: Q04DX003 (ip), vehicle: other 102 % of control | dose: 200.0 mg/kg/injection, schedule: Q04DX003 (ip), vehicle: other 100 % of control | dose: 400.0 mg/kg/injection, schedule: Q04DX003 (ip), vehicle: other 96 % of control

O=C1CN=C(c2ccccn2)c2cc(Cl)ccc2N1CCO
inactive: dose: 100.0 mg/kg/injection, schedule: Q01DX009 (ip), vehicle: saline with Tween-80 106 % of control | [1] 96 % of control | dose: 200.0 mg/kg/injection, schedule: Q01DX009 (ip), vehicle: saline with Tween-80 101 % of control | [2] 112 % of control | dose: 400.0 mg/kg/injection, schedule: Q01DX009 (ip), vehicle: saline with Tween-80 98 % of control | [3] 91 % of control

Cc1ccc2ccccc2c1N(CC(=O)O)S(=O)(=O)c1ccccc1 (tested in a mixture with another compound)
inactive: [4] 94 % of control | [5] 94 % of control | dose: 400.0 mg/kg/injection, schedule: Q04DX003 (ip), vehicle: saline sonified 112 % of control

CCc1ccccc1NC(=O)Nc1cc(C)on1
inactive: [6] 103 % of control | [7] 110 % of control | dose: 400.0 mg/kg/injection, schedule: Q01DX009 (ip), vehicle: Klucel (hydroxypropylcellulose) (HPC) 107 % of control

Cc1ccc(S(=O)(=O)OCC(O)C(OC(=O)c2ccccc2)C(OC(=O)c2ccccc2)C(CO)OC(=O)c2ccccc2)cc1 (configuration not stated)
inactive: dose: 25.0 mg/kg/injection, schedule: Q01DX001 (ip), vehicle: saline with Tween-80 92 % of control | dose: 50.0 mg/kg/injection, schedule: Q01DX001 (ip), vehicle: saline with Tween-80 95 % of control | dose: 100.0 mg/kg/injection, schedule: Q01DX001 (ip), vehicle: saline with Tween-80 88 % of control and 89 % of control

COC(=O)C1CCN1C(C)(C)C (configuration not stated)
inactive: [8] 95 % of control | [9] 111 % of control | [10] 95 % of control | [11] 105 % of control | [12] 103 % of control | dose: 400.0 mg/kg/injection, schedule: Q04DX003 (ip), vehicle: saline 110 % of control

O=c1[nH]cnc2ccnn12
inactive: dose: 50.0 mg/kg/injection, schedule: Q01DX009 (ip), vehicle: saline 104 % of control | [8] 107 % of control | [9] 97 % of control | [11] 92 % of control

O=C(N1CCCCC1)C(Cl)(Cl)Cl
inactive: [13] 98 % of control | [6] 88 % of control | [14] 92 % of control | [15] 110 % of control

O=C(CC(c1ccccc1)c1ccccc1)NS(=O)(=O)c1ccccc1
inactive: [16] 94 % of control | [17] 97 % of control | [18] 97 % of control

CCOc1ccc(NC(=O)c2cccc(Cl)c2)cc1
inactive: [8] 109 % of control | [10] 96 % of control | [12] 96 % of control

O=C(Nc1cc(C(F)(F)F)cc(C(F)(F)F)c1)Nc1c(Oc2ccc(Cl)cc2Cl)ccc(Cl)c1S(=O)(=O)O
inactive: [4] 100 % of control | [5] 100 % of control

CCn1nnc2c(=O)[nH]c(N)nc21
inactive: [1] 105 % of control | [2] 104 % of control | [3] 94 % of control

COP(=S)(OC)N(C)C
inactive: dose: 75.0 mg/kg/injection, schedule: Q01DX001 (ip), vehicle: saline 101 % of control | dose: 150.0 mg/kg/injection, schedule: Q01DX001 (ip), vehicle: saline 96 % of control

CCC(=O)Nc1cccc2ccccc12
inactive: dose: 12.5 mg/kg/injection, schedule: Q01DX009 (ip), vehicle: Klucel (hydroxypropylcellulose) (HPC) 104 % of control | dose: 25.0 mg/kg/injection, schedule: Q01DX009 (ip), vehicle: Klucel (hydroxypropylcellulose) (HPC) 112 % of control | [13] 101 % of control and 89 % of control | [16] 95 % of control | [17] 106 % of control

C/C(=C/c1ccccc1)OC(=O)c1ccccc1
inactive: dose: 50.0 mg/kg/injection, schedule: Q01DX001 (ip), vehicle: carboxymethylcellulose (CMC) 87 % of control | dose: 100.0 mg/kg/injection, schedule: Q01DX001 (ip), vehicle: carboxymethylcellulose (CMC) 86 % of control

O=C1Nc2cccc3cc([N+](=O)[O-])cc1c23
inactive: [19] 101 % of control | [20] 93 % of control | [21] 103 % of control

CC(=O)[O][Hg][c]1cc(C)c(O)c([N+](=O)[O-])c1
inactive: dose: 1.56 mg/kg/injection, schedule: Q04DX003 (ip), vehicle: Klucel (hydroxypropylcellulose) (HPC) 105 % of control | dose: 3.12 mg/kg/injection, schedule: Q01DX009 (ip), vehicle: Klucel (hydroxypropylcellulose) (HPC) 95 % of control | dose: 3.12 mg/kg/injection, schedule: Q04DX003 (ip), vehicle: Klucel (hydroxypropylcellulose) (HPC) 115 % of control | dose: 6.25 mg/kg/injection, schedule: Q01DX009 (ip), vehicle: Klucel (hydroxypropylcellulose) (HPC) 96 % of control | dose: 6.25 mg/kg/injection, schedule: Q04DX003 (ip), vehicle: Klucel (hydroxypropylcellulose) (HPC) 117 % of control | dose: 12.5 mg/kg/injection, schedule: Q04DX003 (ip), vehicle: Klucel (hydroxypropylcellulose) (HPC) 109 % of control

CS(=O)(=O)OCCCl
inactive: dose: 18.8 mg/kg/injection, schedule: Q01DX010 (ip), vehicle: saline 92 % of control and 96 % of control | dose: 37.5 mg/kg/injection, schedule: Q01DX010 (ip), vehicle: saline 92 % of control and 100 % of control | dose: 75.0 mg/kg/injection, schedule: Q01DX010 (ip), vehicle: saline 101 % of control and 104 % of control | dose: 150.0 mg/kg/injection, schedule: Q01DX010 (ip), vehicle: saline 97 % of control and 102 % of control

Cc1cc(C)c2c(c1)C(=O)C(=O)c1cc(C)cc(C)c1-2
inactive: dose: 50.0 mg/kg/injection, schedule: Q04DX002 (ip), vehicle: Klucel (hydroxypropylcellulose) (HPC) 95 % of control | [14] 94 % of control and 92 % of control | [15] 98 % of control | dose: 400.0 mg/kg/injection, schedule: Q04DX002 (ip), vehicle: Klucel (hydroxypropylcellulose) (HPC) 116 % of control and 88 % of control

C[Si](C)(C)Br
inactive: [8] 96 % of control | [10] 87 % of control | [12] 87 % of control

Cc1ccccc1NC(=O)Oc1ccc(Cl)cc1Cl
inactive: dose: 100.0 mg/kg/injection, schedule: Q04DX002 (ip), vehicle: gum acacia 107 % of control | dose: 200.0 mg/kg/injection, schedule: Q04DX002 (ip), vehicle: gum acacia 100 % of control | dose: 400.0 mg/kg/injection, schedule: Q04DX002 (ip), vehicle: gum acacia 104 % of control

O=C1C=C(O)c2ccccc2C1=O
inactive: dose: 10.0 mg/kg/injection, schedule: Q01DX Z (ip), vehicle: other 98 % of control | dose: 12.5 mg/kg/injection, schedule: Q04DX003 (ip), vehicle: saline with Tween-80 98 % of control | dose: 20.0 mg/kg/injection, schedule: Q01DX Z (ip), vehicle: other 88 % of control | dose: 25.0 mg/kg/injection, schedule: Q04DX003 (ip), vehicle: saline with Tween-80 106 % of control | dose: 30.0 mg/kg/injection, schedule: Q01DX Z (ip), vehicle: other 90 % of control | dose: 31.2 mg/kg/injection, schedule: Q01DX Z (ip), vehicle: other 97 % of control | dose: 40.0 mg/kg/injection, schedule: Q01DX Z (ip), vehicle: other 90 % of control | dose: 50.0 mg/kg/injection, schedule: Q04DX003 (ip), vehicle: saline with Tween-80 92 % of control

CCOC(=O)C(C)(C)O
inactive: [19] 91 % of control | [20] 100 % of control | [21] 102 % of control

O=P(Nc1ccc(Cl)c(Cl)c1)(N1CCCCC1)N1CCCCC1
inactive: [16] 93 % of control | [17] 91 % of control | [18] 93 % of control

O=c1[nH]c(=O)c2[nH]c(N=Nc3ccc(S(=O)(=O)N(CCCl)CCCl)cc3)nc2[nH]1
inactive: [13] 97 % of control | [6] 92 % of control | [7] 94 % of control
